Reference: PMC2898662, “Midkine inhibitors: application of a simple assay procedure to screening of inhibitory compounds” (International Archives of Medicine, 2010)
Ends that are not written are not given here. Peptide text beside a SMILES is read from it.

Tests used:
[1] = biological target: T1, midkine (Homo sapiens, UniProt P21741); test: Binding activity to midkine by surface plasmon assay (BIACORE 3000); settings: BIACORE 3000, midkine immobilised on CM5 chip; peptides 5 μg/ml in 10 mM HEPES-NaOH pH 7.4, 0.15 M NaCl, 0.0005% Tween 20; 25°C; read-out: Binding constant to midkine
T1 construct: made in house; host or cells: yeast
T1 sequence (P21741 23-143 limits assumed): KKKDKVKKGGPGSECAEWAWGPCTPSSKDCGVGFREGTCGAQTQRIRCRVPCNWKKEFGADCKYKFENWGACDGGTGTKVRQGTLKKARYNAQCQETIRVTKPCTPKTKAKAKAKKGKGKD
Method: Binding activity to midkine was evaluated in the BIACORE 3000 System (GE Healthcare, UK Ltd). A CM5 sensor chip coated with carboxymethyldextran was activated by injecting a solution (1:1) of 200 mM N-ethyl-N'-(3-dimethylaminopropyl) carbodiimide hydrochloride and 100 mM N-hydroxysuccinimide at a flow rate of 10 μl/min. A 70 μl aliquot of midkine solution (50 μg/ml in 10 mM acetate buffer, pH 5.0) was injected for immobilization. The remaining activated N-hydroxysuccinimide ester groups were blocked by injecting 1 M ethanolamine hydrochloride/NaOH, pH 8.5, and washed with 10 μl of 1 M NaCl. Peptides (5 μg/ml) in the running buffer (10 mM HEPES-NaOH, pH 7.4, containing 0.15 M NaCl and 0.0005% Tween 20) were injected into the flow cell, and the change in resonance units was recorded. Binding assays were performed at 25°C with a constant flow rate of […] in both association and dissociation phases.

[2] = biological target: T1, midkine; test: Midkine activity: midkine-dependent migration of UMR106 cells (Chemotaxicell); type: cell-based; settings: filter coated with 20 μg/ml midkine, 4 h, OD 590 nm
Method: Midkine activity was determined by promotion of migration of UMR106 (ATTC No. 1661) cells. Chemotaxicell (pore size 8 micron, Kurabo Industries Ltd., Japan) was coated with 20 μg/ml of midkine at the lower surface of the filter for 1 h, and washed with Dulbecco's phosphate-buffered saline (PBS) twice. UMR106 cells (2 × 10^5 cells in 0.2 ml of Dulbecco's modified Eagle's medium with 0.3% bovine serum albumin) were added to the upper chamber. The lower chamber contained 0.5 ml of the same medium. Cells were cultured for 4 h. The inner Chemotaxicell was cleaned with PBS, and cells were fixed with 100% methanol at room temperature for 20 min. The inner cell was cleaned with cotton bar, and the migrated cells were stained with 1% crystal violet at room temperature for 30 min., and were washed with H2O. The cells were extracted with 0.2 ml of 1% SDS with 1% Triton X-100 for 1 h upon agitation. Then extract of 0.15 ml was transferred to a 96 well plate and OD 590 nm was determined. Upon inhibition assay using low molecular weight compounds, they were dissolved in ethanol and were added to the lower chamber so that the final ethanol concentration was 2%. The control contained also 2% ethanol in this occasion. Inhibition assay using peptides was performed by adding them dissolved in H2O. Assay was done in duplicate.

[3] = system: UMR106 cells; test: Toxicity to UMR106 target cells in culture
Description: These 10 compounds were surveyed for the activity to inhibit midkine activity.

[4] = peptide 1 mg/ml in lower chamber, dissolved in H2O, control without material = 100, duplicate
[5] = peptide added to culture of UMR106 cells at 1 mg/ml

| Compound | Kd [1] [µM] | Migration activity (%) [2, 4] [%] | other results |
| --- | --- | --- | --- |
| AMETNLV [AM7] | 0.95 | 99.5 ± 6.9 | – |
| GTGTKVRQGTL [GT11, midkine-derived peptide … from β-sheet of C-terminal half] | – | 156 ± 6 | – |
| CC1CCCC(C)N1c1nc(-c2cccs2)cc(C(F)(F)F)n1 (stereo not shown) [Compound I, 2-(2,6-dimethylpiperidin-1-yl)-4-thiophen-2-yl-6-(trifluoromethy)pyrimidine] | – | – | Migration activity (%) ([2]; compound 0.146 mg/ml in lower chamber, 2% ethanol, control = 100, duplicate): 43.8 ± 10.2%; Toxicity to the target cells ([3]; at the concentration used for the migration assay (Compound I 0.146 mg/ml, Compound II 0.10 mg/ml)): no toxicity |
| CC[C@H](C)[C@H](NC(=O)[C@H](CS)NC(=O)[C@H](CCC(=O)O)NC(=O)CNC(=O)[C@H](CS)NC(=O)[C@H](CO)NC(=O)[C@H](CCCCN)NC(=O)[C@H](C)NC(=O)[C@H](CC(N)=O)NC(=O)[C@H](C)NC(=O)[C@@H](N)CCCCN)C(=O)O [KA11] (H-KANAKSCGECI-OH) | 0.27 | 43.7 ± 12.8 | Toxicity to UMR106 cells [3, 5]: no toxicity was observed |
| IENPRGSKDIKKNKN [IE15] | 0.3 | 113 ± 10.1 | – |

Now from value to compound, other results behind:

| Kd [1] [µM] | Migration activity (%) [2, 4] [%] | Compound | other results |
| --- | --- | --- | --- |
| 0.14 | 105 ± 24 | TFSQRIEG [TF8] | – |
| – | 44.0 ± 10.5 | YKFENWGACDGG [YK12] | Inhibition of cell-substratum adhesion of UMR106 cells [3, 5]: inhibition of cell-substratum adhesion was observed in a certain occasion; Toxicity to UMR106 cells [3, 5]: no toxicity was observed |
| 0.2 | 107 ± 15 | KQNQVKFGS [KQ9] | – |
| 0.23 | 107 ± 2 | MQSTIRE [MQ7] | – |
| – | 99.5 ± 10.6 | QETIRVTKPC [QE10, midkine-derived peptide … from β-sheet of C-terminal half] | – |
| 0.45 | 69.4 ± 46.1 | PAKLRNPCT [PA9] | – |
